Experimental data taken from patent US20110294741A1, “USE OF COMPOUNDS IN THE TREATMENT OF TAU-INDUCED CYTOTOXICITIES” (Bioalvo-Servicos, Investigacao e Desenvolvimento em …, priority 2008, published 2011).

How the values were obtained:
[1] = Differential quenching, depth of location in the membrane; format: physicochemical; settings: phenolic ring, differential quenching with Brownian dynamics simulation
Text: The x-axis indicates the distance to the bilayer center, being the monolayer thickness 20 Å and y-axis represents the values of the probability density function. Traces (4) and (5) relate to the location of the quenching agents used in the study.
Differential quenching experiments were used to estimate the depth of location of the phenolic ring of the peptides, based on a Brownian dynamics simulation (Fernandes M. X., García de la Torre J., Castanho M. A. 2002. Joint determination by Brownian dynamics and fluorescence quenching of the in-depth location profile of biomolecules in membranes. Anal. Biochem. 307: 1-12.) This methodology allows to determine where the molecules are preferably inserted along the lipid bilayer. The peptides with the amide group show a greater depth of insertion, 4 Å—KTP-NH2, from the lipid/water interface. This is in agreement with KTP-NH2 having a higher affinity for lipids, as desired.

rats (Wister, male) [2] = experiment: Increasing-temperature hot-plate test; format: in vivo, rat; settings: i.p. and p.o. administration
Protocol: (§1) Kyotorphin is an endogenous analgesic agent in the brain. However, Kyotorphin can not be used as an analgesic due to its inability to cross the blood-brain-barrier. […] In addition, KTP-NH2 efficacy after oral administration was also observed.
(§2) In vivo behavioural anti-nociception tests were carried out in rats (Wister, male). Unless otherwise stated, compounds were administered by intra-peritoneal (i.p.) injection. For most assays, the Tail Flick and the Hot Plate tests were used.
The hot-plate test (Eddy N. B and Leimbach D. 1953. Synthetic analgesics II. Dithienylbutenyl and dithienylbutylamines J. Pharmacol. Exp. Ther. 45: 339) evaluates a supraspinally integrated response in the form of thermal pain reflexes due to footpad contact with a heated surface. During the experiments, the animal is confined in a removable clear acrylic compartment where the latency time to the first hind paw or/and jumping responses are measured. […] The response is the licking of the hindpaw, and the corresponding plate temperature represents the recorded nociceptive end-point. […]
(§3) A KTP derivative was used for comparative purposes, as control. Both drugs were injected i.p. and p.o. and rats were analysed for the Hot Plate and Tail Flick tests.

rats (Wister, male) [3] = experiment: In vivo toxicology: antioxidant capacity in blood samples; parameters: species or system rat; settings: i.p. once a day 3.23 mg-100 g body mass, seven days
Protocol: The toxicological studies were carried out with rats (Wister, male) injected i.p. once a day with 3.23 mg-100 g body mass during seven days.
Metabolization of KTP-NH2 in the organism might lead to an increase in its metabolite products and to the subsequent production of reactive oxygen species (ROS). As increased ROS levels are potentially harmful.
KTP-NH2 potential to induce changes in antioxidant capacities in the plasma of animals was explored. Total antioxidant capacity of lipid-soluble (ACL) and water-soluble (ACW) constituents were determined.

CYP3A4 = CYP3A4 (Homo sapiens, UniProt P08684); experiment: CYP inhibition; format: in vitro ADME; settings: probe substrates midazolan and testosterone
CYP3A4, sequence (P08684 whole entry): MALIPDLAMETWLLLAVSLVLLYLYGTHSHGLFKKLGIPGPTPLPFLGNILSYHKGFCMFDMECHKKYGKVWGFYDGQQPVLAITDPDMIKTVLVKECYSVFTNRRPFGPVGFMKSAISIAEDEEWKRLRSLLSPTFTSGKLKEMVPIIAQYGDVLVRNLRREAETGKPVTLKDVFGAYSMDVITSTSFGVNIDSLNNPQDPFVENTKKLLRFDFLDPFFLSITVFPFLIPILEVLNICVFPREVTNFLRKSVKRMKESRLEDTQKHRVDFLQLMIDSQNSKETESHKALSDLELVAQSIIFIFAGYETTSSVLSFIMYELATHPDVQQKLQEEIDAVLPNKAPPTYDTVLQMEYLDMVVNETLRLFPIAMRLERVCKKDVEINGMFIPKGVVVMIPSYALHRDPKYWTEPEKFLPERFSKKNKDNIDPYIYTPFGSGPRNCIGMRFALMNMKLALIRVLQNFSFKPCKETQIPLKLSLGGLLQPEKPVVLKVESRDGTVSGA
Text: CYP3A4 is one of the most important enzymes involved in the metabolism of xenobiotics in the body, promoting the oxidation of the largest range of substrates of all the CYPs and is present in the largest quantity of all the CYPs in the liver.

[4] = test system: […] I cells, tunicamycin-induced ER stress; experiment: Yeast platform DISAGGREGATOR I, ER stress GFP reporter (chemically induced with tunicamycin); format: cell-based; settings: 1 μg/ml tunicamycin
Protocol: Cells were grown as described for FIG. 7;
The yeast platform DISAGGREGATOR I comprises an ER stress element operably linked to a GFP reporter element and is used to determine the level of ER stress in cells during growth or triggered by specific ER stress inducers, e.g. tunicamycin. Tunicamycin is known to inhibit the glycosylation of nascent polypeptides, resulting in misfolded proteins, that are retained in the endoplasmic reticulum and therefore triggering ER stress.
Using these two platforms in parallel, it is possible to identify compounds that reduce specifically the stress induced by the TAU P301L protein, and other compounds that are simply general ER stress reducers.
DISAGGREGATOR I P301L cells were grown in 200 μl medium containing the KTP-NH2 at a concentration of 10 μM and 100 μM. DISAGGREGATOR I cells were grown in the same condition but subjected to an addition of 1 μg/mL of tunicamycin in order to induce ER stress chemically.

rats (Wister, male) [5] = experiment: Tail-flick test; format: in vivo, rat
Protocol: as §1, §2
The tail-flick test (D'Amour F. E., Smith D. L. 1941. A method for determining the loss of pain sensation. J Pharmacol Exp Ther 1941; 72:74-79) is a standard investigative tool for pain and analgesia assessment in rodents. It is based on a spinal reflex response of the tail to radiant heat. Pain sensitivity in rats was measured as they responded to the application of radiant heat to a small area of their tails. […]
as §3
Additionaly, the central action of KTP-NH2 was confirmed by experiments of naloxone-reversible analgesia. […] In order to corroborate the evidence that KTP-NH2 was exerting its analgesic effect via a central action, we analyzed the antinociceptive effect of KTP-NH2 after pretreatment with naloxone.

Plasma stability = format: in vitro ADME, human; settings: after 1 h incubation
Text: Drugs are exposed in plasma to enzymatic processes (proteinases, esterases), they can undergo intramolecular rearrangement or bind irreversibly (covalently) to proteins. Compounds which are not stable in plasma have inherent liability as drug candidates, as they are less capable to reach a sufficient concentration at their site of pharmacological activity.

Structure (SMILES): N=C(N)NCCCC(NC(=O)C(N)Cc1ccc(O)cc1)C(N)=O [KTP-NH2, L-Tyr-L-Arg-NH2]
- depth of insertion from the lipid/water interface [1]: 4 Å
- anti-nociceptive response, temperature increase tolerated in the paw (Hot Plate) (rats (Wister, male) [2]): clear anti-nociceptive response
- basal antioxidant capacity in plasma (water-soluble ACW and lipid-soluble ACL constituents) (rats (Wister, male) [3]): does not induce significant modifications
- CYP3A4 inhibition (CYP3A4): not to inhibit
- action on ER stress chemically induced with tunicamycin ([4]; 10 and 100 μM, first assay (FIG. 10)): almost no action
- decrease of stress chemically induced with tunicamycin ([4]; second assay (FIG. 12)): did not significantly decrease
- residual ER stress signal, of the maximum level without compound ([4]; 100 μM, average of two experiments (FIG. 13)): 80%
- effect of naloxone pretreatment on analgesia (rats (Wister, male) [5]; naloxone 10 min before KTP-NH2, KTP-NH2 3 mg/100 g, naloxone 0.5 mg/100 g, tail-flick): completely antagonized the analgesia
- anti-nociceptive response, time to remove tail after stimulus (Tail Flick) (rats (Wister, male) [5]; rats, i.p. and p.o. administration): clear anti-nociceptive response
- stability in human plasma (Plasma stability): 14-21%
